Reference: patent US10995068B2, “Synthetic sphingolipid-like molecules, drugs, methods of their synthesis and methods of treatment” (The Regents of the University of California, priority 2015, dated 2021)

Experiments:
[1] = tested on: PC3 prostate cancer cells; experiment: Cell Titer Glo proliferation assay in PC3; type: cell-based, human; details: Cell Titer Glo, 72 h; Mean ± SEM, n ≥ 3; read-out: IC50 values in prostate cancer cell lines, PC3
Experimental: (§1) Previously presented compounds 1-4 (FIG. 23), compounds 5-8 (FIG. 28), and control compound FTY720 (FIG. 2) were used to treat the well-established PC3 and DU145 prostate cancer lines (FIG. 29 and Table 1). A Cell Titer Glo assay was performed to measure proliferation of the cancer lines.
(§2) Cell culture studies: Sup-B15 cells are maintained at 2-3 million/mL in RPMI 1640 (Mediatech) supplemented with 10% fetal calf serum (FCS, Sigma-Aldrich), 10 mM Hepes (Mediatech), 55 μM β-mercaptoethanol (Sigma-Aldrich), 2 mM L-glutamine (Mediatech), and antibiotics. All adherent cells are maintained at 70-80% confluence. Cell are cultured in the following media: PC3 & A549, Ham's F12K (Corning Cell Gro) supplemented with 10% FCS and antibiotics; DU145 cells, MEM (Corning Cell Gro) supplemented with 10% FCS, 1 mM sodium pyruvate (Mediatech), and antibiotics; SW620 & MDA-MB-231, DMEM (Corning Cell Gro) with 10% FCS, 1 mM sodium pyruvate (Mediatech), and antibiotics; Panc-1 cells, DMEM (Corning Cell Gro) supplemented with 10% FCS and antibiotics. All of the above cell lines are available from the ATCC.
(§3) Viability assays: Cell Titer Glo assays (Cell Titer Glo Luminescent Cell Viability Assay kit, cat #G7571, Promega Corporation) are performed in clear bottom 96-well black cell culture plates (cat #655090, Greiner Bio-One, NC, USA). After plating at 1,000 cells/well in volume of 100 μl, cells are left undisturbed for at least 24 h before drug addition. After 72 h, cells are prepared for analysis by adding 10 μl of 0.1% Triton-X100 in PBS with shaking for 1 min at room temperature (RT). Cell Titer-Glo cell lysis reagent (20 μl) is then added followed by 1 min of shaking and a 10 min incubation in the dark at RT. Luminescence is detected using an IVIS imaging system (IVIS Lumina II, Perkin Elmer, USA). […] IC50s are determined using GraphPad Prism (GraphPad Software, Inc, La Jolla, Calif.). SupB-15 viability was determined by flow cytometry. Cell Titer Glo assays were performed with the other cell lines.

[2] = tested on: DU145 prostate cancer cells; experiment: Cell Titer Glo proliferation assay in DU145; type: cell-based, human; details: 72 h, Mean ± SEM, n ≥ 3, read-out: IC50 values in prostate cancer cell lines, DU145
Experimental: as §1, §2, §3

[3] = tested on: PC3 prostate cancer cells; experiment: Cell viability by vital dye exclusion and flow cytometry in PC3; type: cell-based, human; details: vital dye exclusion (DAPI) and flow cytometry, 72 h
Experimental: Thus, to determine whether analogues in accordance with embodiments of the invention are cytotoxic, studies were conducted using vital dye exclusion and flow cytometry (Table 2).
as §3

[4] = tested on: Colon (SW-620) cancer cell line; experiment: IC50 in cancer cell lines (Table 3), colon; type: cell-based, human; details: Mean ± SEM, n ≥ 3
Experimental: (§4) Having observed a suitable potency of some embodiments of the invention, including, at least with compounds 3-6, 14 in prostate cancer cell lines, other cancer cell lines were tested with these compounds. […] Compounds that were active in prostate cancer cell lines also killed BCR-Abl-positive leukemia cells with similar potency to FTY720.
as §2, §3

[5] = tested on: Lung (A-549) cancer cell line; experiment: IC50 in cancer cell lines (Table 3), lung; type: cell-based, human; details: Mean ± SEM, n ≥ 3
Experimental: as §4, §2, §3

[6] = tested on: Pancreas (PANC-1) cancer cell line; experiment: IC50 in cancer cell lines (Table 3), pancreas; type: cell-based, human; details: Mean ± SEM, n ≥ 3
Experimental: as §4, §2, §3

[7] = tested on: Breast (MDA-MB-231) cancer cell line; experiment: IC50 in cancer cell lines (Table 3), breast; type: cell-based, human; details: Mean ± SEM, n ≥ 3
Experimental: as §4, §2, §3

Leukemia (SupB-15) cells = experiment: IC50 in cancer cell lines (Table 3), leukemia; type: cell-based, human; details: flow cytometry; Mean ± SEM, n ≥ 3
Experimental: as §4, §2, §3

S1P receptor 1 = target: T1, S1P receptor 1 (Homo sapiens, UniProt P21453); experiment: S1P receptor activation in CHO cells, S1P1; type: cell-based; details: CHO cells over-expressing human S1P1, 10 min stimulation, Western blot
T1 construct: expressed in transfected cells
T1 sequence (P21453 whole entry): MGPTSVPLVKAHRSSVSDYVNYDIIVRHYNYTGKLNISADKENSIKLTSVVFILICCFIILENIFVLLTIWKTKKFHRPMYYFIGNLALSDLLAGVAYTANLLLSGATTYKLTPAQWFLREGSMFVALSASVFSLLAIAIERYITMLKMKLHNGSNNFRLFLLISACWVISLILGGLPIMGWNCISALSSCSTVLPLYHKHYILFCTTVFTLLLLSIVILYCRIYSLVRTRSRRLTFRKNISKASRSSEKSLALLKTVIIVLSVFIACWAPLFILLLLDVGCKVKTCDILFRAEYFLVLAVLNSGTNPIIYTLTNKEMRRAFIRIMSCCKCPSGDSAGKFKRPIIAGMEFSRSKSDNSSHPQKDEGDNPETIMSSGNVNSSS
Text: (§5) Phosphorylation may have effects on S1P receptor activity that could cause bradycardia. Bradycardia, the dose-limiting toxicity that prevents the use of FTY720 in cancer patients, stems from FTY720-P's actions on S1P receptors 1 and 3. (Camm, J., et al. (2014) Am. Heart J. 168, 632-644; Cohen, J. A., Chun, J. (2011) Ann. Neurol. 69, 759-777; Sanna, M. G., et al. (2004) J. Biol. Chem. 279, 13839-13848; the disclosures of which are incorporated herein by reference). Phosphorylation by sphingosine kinase may make compounds competent to activate S1P receptors. FTY720, for example, when phosphorylated is known to activate S1P receptors 1 and 3. Because compound 5 could be phosphorylated, the activity of compound 5 and its phosphate 5-P (FIG. 28) on S1P receptors was evaluated (FIG. 32).
(§6) 51P1-5 activation: Chinese hamster ovary (CHO) cells stably over-expressing the different human 51P receptor subtypes are used. S1P1, S1P4 and S1P5 overexpressing CHO cells are cultured in medium containing alpha-MEM supplemented with 10% FBS, 50 μg/ml gentamycin and 0.5 mg/ml G418. S1P2 and S1P3 overexpressing CHO cells are cultured in RPMI containing 10% FBS, 50 μg/ml gentamycin and 0.5 mg/ml G418. Prior to stimulation, cells are rendered serum-free for 24 h. Stimulation is carried out for 10 min in serum-free DMEM containing 0.1 mg/ml of fatty-acid free BSA in the absence or presence of the various compounds or 51P. Protein lysates are prepared using a buffer containing (50 mM Tris pH 7.4, 150 mM NaCl, 10% glycerol, 1% Triton X-100, 2 mM EDTA, 2 mM EGTA, 40 mM β-glycerophosphate, 50 mM sodium fluoride, 10 mM sodium pyrophosphate, 2 mM dithiothreitol, 0.2 mM sodium orthovanadate). Cells are homogenized by one 5 sec burst in a MSE Ultrasonic Disintegrator, centrifuged and taken for protein determination. Equal amounts of protein are separated by SDS-PAGE (10% polyacrylamide gel), transferred to nitrocellulose membranes and subjected to Western blot analysis. Bands were stained using IRDye® secondary antibodies and visualized by the LICOR Odyssey® Fc Imaging system. Antibodies against phospho-Thr202/Tyr204-p42/p44-MAPK and phospho-Ser PKC substrate are from Cell Signaling, Frankfurt am Main, Germany. Polyclonal antisera against total p42 and total p44 were generated and characterized as previously described. (Huwiler, A.; Pfeilschifter, J. Br. J. Pharmacol. 1994, 113, 1455-1463; disclosure of which is incorporated herein by reference).

S1P receptor 2 = target: T2, S1P receptor 2 (Homo sapiens, UniProt O95136); experiment: S1P receptor activation in CHO cells, S1P2; type: cell-based; details: CHO cells over-expressing human S1P2
T2 construct: expressed in transfected cells
T2 sequence (O95136 whole entry): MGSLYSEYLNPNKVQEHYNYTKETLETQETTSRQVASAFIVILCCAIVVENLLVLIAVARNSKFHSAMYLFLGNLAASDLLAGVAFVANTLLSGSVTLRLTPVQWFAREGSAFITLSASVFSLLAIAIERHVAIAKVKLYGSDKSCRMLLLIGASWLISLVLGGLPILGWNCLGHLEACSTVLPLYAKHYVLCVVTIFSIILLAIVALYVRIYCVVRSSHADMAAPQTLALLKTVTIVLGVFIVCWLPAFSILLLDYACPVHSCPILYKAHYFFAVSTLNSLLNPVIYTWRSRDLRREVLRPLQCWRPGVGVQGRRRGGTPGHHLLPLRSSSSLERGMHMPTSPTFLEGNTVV
Text: as §5, §6

S1P receptor 3 = target: T3, S1P receptor 3 (Homo sapiens, UniProt Q99500); experiment: S1P receptor activation in CHO cells, S1P3; type: cell-based; details: CHO cells over-expressing human S1P3
T3 construct: expressed in transfected cells
T3 sequence (Q99500 whole entry): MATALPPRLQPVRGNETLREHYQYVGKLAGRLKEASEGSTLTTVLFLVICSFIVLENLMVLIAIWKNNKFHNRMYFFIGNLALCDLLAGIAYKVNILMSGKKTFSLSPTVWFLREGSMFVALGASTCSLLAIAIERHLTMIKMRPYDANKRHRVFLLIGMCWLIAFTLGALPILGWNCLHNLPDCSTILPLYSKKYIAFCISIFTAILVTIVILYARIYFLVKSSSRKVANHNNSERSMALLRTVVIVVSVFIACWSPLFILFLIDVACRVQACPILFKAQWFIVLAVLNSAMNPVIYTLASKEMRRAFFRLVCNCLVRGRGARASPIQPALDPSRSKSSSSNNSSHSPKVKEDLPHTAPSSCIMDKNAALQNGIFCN
Text: as §5, §6

S1P receptor 4 = target: T4, S1P receptor 4 (Homo sapiens, UniProt O95977); experiment: S1P receptor activation in CHO cells, S1P4; type: cell-based; details: CHO cells over-expressing human S1P4
T4 construct: expressed in transfected cells
T4 sequence (O95977 1-384): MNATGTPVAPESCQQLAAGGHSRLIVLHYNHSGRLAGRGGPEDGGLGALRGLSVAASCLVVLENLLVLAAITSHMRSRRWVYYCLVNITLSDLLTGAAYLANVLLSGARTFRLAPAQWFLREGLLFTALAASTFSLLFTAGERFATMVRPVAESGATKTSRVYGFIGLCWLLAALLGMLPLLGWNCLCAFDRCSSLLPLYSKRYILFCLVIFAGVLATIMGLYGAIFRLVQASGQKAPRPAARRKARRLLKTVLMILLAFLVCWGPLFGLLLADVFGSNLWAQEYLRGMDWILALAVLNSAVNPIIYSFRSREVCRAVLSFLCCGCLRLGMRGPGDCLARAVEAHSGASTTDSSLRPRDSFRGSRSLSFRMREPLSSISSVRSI
Text: as §5, §6

S1P receptor 5 = target: T5, S1P receptor 5 (Homo sapiens, UniProt Q9H228); experiment: S1P receptor activation in CHO cells, S1P5; type: cell-based; details: CHO cells over-expressing human S1P5
T5 construct: expressed in transfected cells
T5 sequence (Q9H228 whole entry): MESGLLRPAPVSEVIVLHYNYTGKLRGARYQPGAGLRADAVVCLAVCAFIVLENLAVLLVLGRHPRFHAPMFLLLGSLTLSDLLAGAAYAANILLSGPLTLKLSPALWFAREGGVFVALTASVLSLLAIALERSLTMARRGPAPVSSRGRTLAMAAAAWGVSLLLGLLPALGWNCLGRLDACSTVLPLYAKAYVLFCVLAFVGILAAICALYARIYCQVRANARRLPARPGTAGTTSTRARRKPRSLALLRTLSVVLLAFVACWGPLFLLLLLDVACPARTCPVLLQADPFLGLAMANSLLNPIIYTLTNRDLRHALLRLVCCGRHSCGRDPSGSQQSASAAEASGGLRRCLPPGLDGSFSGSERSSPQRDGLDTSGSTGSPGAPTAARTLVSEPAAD
Text: as §5, §6

Compound: CCCCCCCCc1ccc([C@@H]2CCN[C@H]2COC)cc1.Cl [Compound 14]
- IC50 [1]: 1.9 ± 0.3 µM
- IC50 [2]: 5.6 ± 0.1 µM
- IC50 [3]: 4.6 ± 0.4 µM
- IC50 [4]: 2.7 ± 0.2 µM
- IC50 [5]: 7.8 ± 1.8 µM
- IC50 [6]: 4.8 ± 0.6 µM
- IC50 [7]: 4 µM
- IC50 (Leukemia (SupB-15) cells): 7.5 ± 0.4 µM
- activation of S1P receptor 1 (S1P receptor 1): not able to activate
- activation of S1P receptor 2 (S1P receptor 2): not able to activate
- activation of S1P receptor 3 (S1P receptor 3): not able to activate
- activation of S1P receptor 4 (S1P receptor 4): not able to activate
- activation of S1P receptor 5 (S1P receptor 5): not able to activate
